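How tested: cells in 96-well plates exposed to compound for 48 hours at five concentrations. TGI denotes the concentration required for complete inhibition of growth.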
Key:
Experiment in all cases: inhibition of tumour cell growth, NCI panel, 48 h
HOP-62 NSCLC = system: HOP-62 NSCLC
IGROV1 ovarian = system: IGROV1 ovarian
EKVX NSCLC = system: EKVX NSCLC
ACHN renal = system: ACHN renal
MOLT-4 leukemia = system: MOLT-4 leukemia
NCI-H226 lung = system: NCI-H226 lung
HL-60(TB) leukemia = system: HL-60(TB) leukemia
NCI/ADR-RES ovarian = system: NCI/ADR-RES ovarian
NCI-H460 lung = system: NCI-H460 lung
OVCAR-8 ovarian = system: OVCAR-8 ovarian
TK-10 renal = system: TK-10 renal
HCT-116 colon = system: HCT-116 colon
LOX IMVI melanoma = system: LOX IMVI melanoma
SK-OV-3 ovarian = system: SK-OV-3 ovarian

| SMILES | TGI (HOP-62 NSCLC) [µM] | TGI (IGROV1 ovarian) [µM] | TGI (EKVX NSCLC) [µM] | TGI (ACHN renal) [µM] | TGI (MOLT-4 leukemia) [µM] | TGI (NCI-H226 lung) [µM] | TGI (HL-60(TB) leukemia) [µM] | TGI (NCI/ADR-RES ovarian) [µM] | TGI (NCI-H460 lung) [µM] | TGI (OVCAR-8 ovarian) [µM] | TGI (TK-10 renal) [µM] | TGI (HCT-116 colon) [µM] | TGI (LOX IMVI melanoma) [µM] | TGI (SK-OV-3 ovarian) [µM] |
| --- | --- | --- | --- | --- | --- | --- | --- | --- | --- | --- | --- | --- | --- | --- |
| COc1ccc(-c2nc3c(C(=O)NCCN(C)C)cccc3c3ccccc23)cc1 | 13.3 | 14.6 | 19.6 | 12.8 | 6.55 | 17.1 | 7 | 45.4 | 10.9 | 20.6 | 19.8 | 11.6 | 2.94 | – |
| CCCCC1(O)CC2CC1C(C)C2(C)C (stereo not given) | > 100 | > 100 | > 100 | – | > 100 | > 100 | 64.6 | > 100 | – | > 100 | > 100 | > 100 | > 100 | > 100 |
| CC(C)(C)[Si](C)(C)OCC1OC(n2ccc(=O)[nH]c2=O)C(O[Si](C)(C)C(C)(C)C)[C@]12O[C@@H]2CO (stereo not given in full) | 30.2 | 33.1 | 36.6 | 24.2 | 46.3 | 30.7 | – | 44 | 35.1 | > 100 | 31 | 39 | 40.9 | 30.5 |
| C/C=C\C(CC(=O)OC)CC(=O)N(CCC1CN(S(=O)(=O)C(F)(F)F)c2ccccc21)Cc1ccc(OC)cc1OC (stereo not given) | > 100 | > 100 | > 100 | > 100 | > 100 | > 100 | – | > 100 | > 100 | – | > 100 | > 100 | > 100 | > 100 |
| O=C1C=C(c2ccccc2)O/C1=C\C(=O)c1ccc(Cl)cc1 | > 100 | 35.8 | > 100 | 29.7 | > 100 | 44.5 | – | 52.4 | > 100 | 83.4 | 35 | 31.2 | 30.1 | > 100 |
| O=c1[nH]c(=O)n(CCOc2ccc(Cl)cc2)cc1Nc1ccccc1 | > 100 | > 100 | > 100 | > 100 | > 100 | – | > 100 | > 100 | > 100 | – | – | > 100 | > 100 | – |
| CC(=O)Nc1cc2nc3n(c2cc1C)CCC3OC(C)=O (stereo not given) | – | > 100 | > 100 | > 100 | > 100 | > 100 | > 100 | > 100 | > 100 | > 100 | – | > 100 | > 100 | > 100 |
| CCOC(=O)C1(N)CC1 | > 100 | > 100 | > 100 | > 100 | > 100 | > 100 | > 100 | > 100 | > 100 | > 100 | > 100 | > 100 | > 100 | – |
| Cc1ccc(C(=O)Oc2ccc(/C=C3\CCC/C(=C\c4ccc(OC(=O)c5ccc(C)cc5)cc4)C3=O)cc2)cc1 | > 100 | > 100 | > 100 | > 100 | > 100 | – | > 100 | > 100 | > 100 | > 100 | > 100 | > 100 | > 100 | – |
| COc1cc(C2OC[C@@H]3C(=O)OC[C@H]23)cc(O)c1OC (stereo not given in full) | – | > 100 | > 100 | > 100 | > 100 | > 100 | > 100 | > 100 | > 100 | > 100 | > 100 | > 100 | > 100 | > 100 |
| COC(=O)[C@]12CSC[C@H]1C[C@H](c1cccc3ccccc13)N2 | > 100 | > 100 | > 100 | > 100 | 61.4 | > 100 | – | > 100 | > 100 | > 100 | – | > 100 | > 100 | > 100 |
| CN1CCN(Cc2nc3c(s2)CCc2sccc2-3)CC1 | > 100 | > 100 | > 100 | > 100 | > 100 | > 100 | – | > 100 | > 100 | > 100 | > 100 | > 100 | – | > 100 |
| O=c1[nH]nc(Cc2ccccc2)n1/N=C/c1ccc([N+](=O)[O-])cc1 | > 100 | > 100 | > 100 | > 100 | > 100 | > 100 | > 100 | > 100 | > 100 | > 100 | > 100 | > 100 | > 100 | – |
| C=C(Cl)C(C)(Cl)CCC(Cl)C(C)C (stereo not given) | > 100 | > 100 | > 100 | > 100 | > 100 | > 100 | > 100 | > 100 | > 100 | – | > 100 | > 100 | 47.6 | > 100 |
| O=C(NCCCN(CCCCN(CCCNC(=O)c1cc(S(=O)(=O)O)cc(O)c1O)C(=O)c1cc(S(=O)(=O)O)cc(O)c1O)C(=O)c1cc(S(=O)(=O)O)cc(O)c1O)c1cc(S(=O)(=O)O)cc(O)c1O | – | > 100 | – | > 100 | – | > 100 | > 100 | > 100 | > 100 | > 100 | > 100 | > 100 | > 100 | – |
| O=C(CN=C(CN(c1ccccc1)c1ccccc1)Oc1ccc(Cl)cc1Cl)n1ccnc1 | > 100 | > 100 | > 100 | > 100 | > 100 | > 100 | – | > 100 | > 100 | > 100 | > 100 | > 100 | > 100 | > 100 |
| CCOc1cccc(-c2cc(=O)c3cc4c(cc3[nH]2)OCO4)c1 | > 100 | > 100 | > 100 | > 62.3 | > 100 | 15.1 | > 100 | 0.294 | > 61.8 | 2.7 | 8.45 | 7.85 | > 100 | – |
| Cc1cc(C)nc(NS(=O)(=O)c2ccc(NC(=O)NC(F)(F)F)cc2)n1 | – | > 100 | > 100 | > 100 | > 100 | – | > 100 | > 100 | – | > 100 | > 100 | > 100 | > 100 | > 100 |

Source: PubChem BioAssay (NCI)
